Experiments:
[1] = test system: pERK in ASPC1 cells; assay: Inhibition of KRas phosphorylation of ERK (Cisbio HTRF pERK assay); settings: Homo sapiens, ASPC1, read-out: Inhibition (HTRF IC50) of KRas-mediated Phosphorylation of ERK, AsPC-1
[2] = test system: pERK in MKN1 cells; assay: as above; settings: Homo sapiens, MKN-1, 3 h, read-out: Inhibition (HTRF IC50) of KRas-mediated Phosphorylation of ERK, MKN1
[3] = test system: pERK in HCT116 cells; assay: as above; settings: Homo sapiens, HCT-116, read-out: Inhibition (HTRF IC50) of KRas-mediated Phosphorylation of ERK, HCT116
[4] = biological target: KRas G12D (Homo sapiens, UniProt P01116, G12D); assay: biochemical;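 also: TR-FRET displacement binding assay on KRas, read after a one-hour incubation at room temperature, IC50 fitted from percent-of-control values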
Chain of KRas G12D (P01116 1-169 isoform P01116-2 G12D): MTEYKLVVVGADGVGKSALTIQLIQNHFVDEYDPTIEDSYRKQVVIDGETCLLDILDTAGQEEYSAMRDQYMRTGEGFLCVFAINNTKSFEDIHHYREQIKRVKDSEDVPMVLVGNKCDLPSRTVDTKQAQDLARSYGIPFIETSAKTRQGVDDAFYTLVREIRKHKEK
Procedure: (§1) The ability of a compound to bind to KRas was measured using a TR-FRET displacement assay. […] After a 60-minute incubation at room temperature, the reaction was measured using a BMG LABTECH CLARIO star Plus via TR-FRET. […] The POC values were fit to a 4-parameter IC50 equation and the IC50 value reported.

[5] = test system: pERK in H727 cells; assay: Inhibition of KRas phosphorylation of ERK (Cisbio HTRF pERK assay); settings: Homo sapiens, NCI-H727, read-out: Inhibition (HTRF IC50) of KRas-mediated Phosphorylation of ERK, H727
[6] = test system: pERK in PSN1 cells; assay: as above; settings: Homo sapiens, PSN1, 3 h, read-out: Inhibition (HTRF IC50) of KRas-mediated Phosphorylation of ERK, PSN1
[7] = biological target: KRas G12V (Homo sapiens, UniProt P01116, G12V); assay: biochemical;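 also: KRas binding measured by TR-FRET displacement at room temperature, IC50 fitted from percent of control values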
Chain of KRas G12V (P01116 1-169 isoform P01116-2 G12V): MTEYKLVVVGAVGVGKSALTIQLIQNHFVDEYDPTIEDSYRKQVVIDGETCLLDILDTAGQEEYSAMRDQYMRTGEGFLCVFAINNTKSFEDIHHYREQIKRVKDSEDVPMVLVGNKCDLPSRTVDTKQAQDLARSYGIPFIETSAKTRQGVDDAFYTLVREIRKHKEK
Procedure: as §1

[8] = biological target: KRas G12R (Homo sapiens, UniProt P01116, G12R); assay: biochemical;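 also: TR-FRET displacement assay of compound binding to KRas, read after one hour at room temperature, potency from a four-parameter fit of percent-of-control values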
Chain of KRas G12R (P01116 1-169 isoform P01116-2 G12R): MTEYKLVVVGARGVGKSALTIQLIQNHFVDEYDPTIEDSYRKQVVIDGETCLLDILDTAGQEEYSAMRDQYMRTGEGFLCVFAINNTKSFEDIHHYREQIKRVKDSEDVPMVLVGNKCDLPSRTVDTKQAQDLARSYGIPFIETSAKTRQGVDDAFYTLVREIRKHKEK
Procedure: as §1

Row | SMILES | IC50 [1] [nM] | IC50 [2] [nM] | IC50 [3] [nM] | IC50 [4] [nM] | IC50 [5] [nM] | IC50 [6] [nM] | IC50 [7] [nM] | IC50 [8] [nM]
1 | NS(=O)(=O)CC1CCCN(c2nc(OC[C@@]34CCCN3C[C@H](F)C4)nc3c(F)c(-c4cc(O)cc5ccc(F)c(Cl)c45)ncc23)C1 (stereo partly drawn) [Example 414, 1-(1-(7-(8-chloro-7-fluoro-3-hydroxynaphthalen-1-yl)-8-fluoro-2-(((2R,7aS)-2-fluorotetrahydro-1H-pyrrolizin-7a(5H)-yl)methoxy)pyrido[4,3-d]pyrimidin-4-yl)piperidin-3-yl)methanesulfonamide] | 1330 | 32 | 514 | ≤ 2 | 269 | 3480 | ≤ 2 | 4
2 | C#Cc1c(F)ccc2cc(O)cc(-c3ncc4c(N5CCCC6(CNC6=O)C5)nc(OC[C@@]56CCCN5C[C@H](F)C6)nc4c3F)c12 (stereo partly drawn) [Example 392, 6-(7-(8-ethynyl-7-fluoro-3-hydroxynaphthalen-1-yl)-8-fluoro-2-(((2R,7aS)-2-fluorohexahydro-1H-pyrrolizin-7a-yl)methoxy)pyrido[4,3-d]pyrimidin-4-yl)-2,6-diazaspiro[3.5]nonan-1-one] | 1180 | 336 | 2250 | ≤ 2 | 1370 | 6020 | 3 | 3
3 | CCc1c(F)ccc2cc(O)cc(-c3ncc4c(NC5CCS(=O)(=O)C5)nc(OC[C@@]56CCCN5C[C@H](F)C6)nc4c3F)c12 (stereo partly drawn) [Example 349, 3-((7-(8-ethyl-7-fluoro-3-hydroxynaphthalen-1-yl)-8-fluoro-2-(((2R,7aS)-2-fluorotetrahydro-1H-pyrrolizin-7a(5H)-yl)methoxy)pyrido[4,3-d]pyrimidin-4-yl)amino)tetrahydrothiophene 1,1-dioxide] | 475 | 149 | 2250 | 20 | 1860 | ≥ 10000 | 4 | 7
4 | CCc1c(F)ccc2cc(O)cc(-c3ncc4c(N5CCCn6nc(C(=O)N(C)C)cc6C5)nc(OCC5(CN(C)C)CC5)nc4c3F)c12 [Example 333, 5-(2-((1-((dimethylamino)methyl)cyclopropyl)methoxy)-7-(8-ethyl-7-fluoro-3-hydroxynaphthalen-1-yl)-8-fluoropyrido[4,3-d]pyrimidin-4-yl)-N,N-dimethyl-5,6,7,8-tetrahydro-4H-pyrazolo[1,5-a][1,4]diazepine-2-carboxamide] | 603 | 425 | 9190 | ≤ 2 | 2110 | ≥ 10000 | ≤ 2 | 5
5 | Cc1c(F)ccc2cc(O)cc(-c3ncc4c(N5CCCC(CS(N)(=O)=O)C5)nc(OC[C@@]56CCCN5C[C@H](F)C6)nc4c3F)c12 (stereo partly drawn) [Example 461, 1-(1-(8-fluoro-7-(7-fluoro-3-hydroxy-8-methylnaphthalen-1-yl)-2-(((2R,7aS)-2-fluorohexahydro-1H-pyrrolizin-7a-yl)methoxy)pyrido[4,3-d]pyrimidin-4-yl)piperidin-3-yl)methanesulfonamide] | 1150 | 18 | 172 | ≤ 2 | 239 | 3760 | ≤ 2 | ≤ 2

The next lines start with the values.

Row | IC50 [1] [nM] | IC50 [2] [nM] | IC50 [3] [nM] | IC50 [4] [nM] | IC50 [5] [nM] | IC50 [6] [nM] | IC50 [7] [nM] | IC50 [8] [nM] | SMILES
6 | 398 | 94 | 1180 | ≤ 2 | 593 | ≥ 10000 | ≤ 2 | ≤ 2 | O=C1NCC2(CCCN(c3nc(OC[C@@]45CCCN4C[C@H](F)C5)nc4c(F)c(-c5cc(O)cc6ccc(F)c(Br)c56)ncc34)C2)N1 (stereo partly drawn) [Example 409, 7-(7-(8-bromo-7-fluoro-3-hydroxynaphthalen-1-yl)-8-fluoro-2-(((2R,7aS)-2-fluorohexahydro-1H-pyrrolizin-7a-yl)methoxy)pyrido[4,3-d]pyrimidin-4-yl)-1,3,7-triazaspiro[4.5]decan-2-one]
7 | 505 | 58 | 375 | ≤ 2 | 244 | ≥ 10000 | ≤ 2 | ≤ 2 | CCc1c(F)ccc2cc(O)cc(-c3ncc4c(NCC5CC(=O)NC5=O)nc(OC[C@@]56CCCN5C[C@H](F)C6)nc4c3F)c12 (stereo partly drawn) [Example 367, 3-(((7-(8-ethyl-7-fluoro-3-hydroxynaphthalen-1-yl)-8-fluoro-2-(((2R,7aS)-2-fluorohexahydro-1H-pyrrolizin-7a-yl)methoxy)pyrido[4,3-d]pyrimidin-4-yl)amino)methyl)pyrrolidine-2,5-dione]
8 | 514 | 49 | 438 | 3 | 395 | 1840 | 3 | 5 | CCc1c(F)ccc2cc(O)cc(-c3ncc4c(N5CCOCC6(C5)NC(=O)NC6=O)nc(OC[C@@]56CCCN5C[C@H](F)C6)nc4c3F)c12 (stereo partly drawn) [Example 337, 10-(7-(8-ethyl-7-fluoro-3-hydroxynaphthalen-1-yl)-8-fluoro-2-(((2R,7aS)-2-fluorohexahydro-1H-pyrrolizin-7a-yl)methoxy)pyrido[4,3-d]pyrimidin-4-yl)-7-oxa-1,3,10-triazaspiro[4.6]undecane-2,4-dione]
9 | 859 | 56 | 1310 | 3 | 366 | ≥ 10000 | ≤ 2 | 4 | OCC1COCCN(c2nc(OC[C@@]34CCCN3C[C@H](F)C4)nc3c(F)c(-c4cc(O)cc5ccc(F)c(Cl)c45)ncc23)C1 (stereo partly drawn) [Example 420, 5-chloro-6-fluoro-4-(8-fluoro-2-(((2R,7aS)-2-fluorohexahydro-1H-pyrrolizin-7a-yl)methoxy)-4-(6-(hydroxymethyl)-1,4-oxazepan-4-yl)pyrido[4,3-d]pyrimidin-7-yl)naphthalen-2-ol]
10 | 365 | 157 | 602 | ≤ 2 | 603 | 3150 | ≤ 2 | ≤ 2 | O=C1NC(=O)C2(CCCN(c3nc(OC[C@@]45CCCN4C[C@H](F)C5)nc4c(F)c(-c5cc(O)cc6ccc(F)c(Br)c56)ncc34)C2)N1 (stereo partly drawn) [Example 410, 7-(7-(8-bromo-7-fluoro-3-hydroxynaphthalen-1-yl)-8-fluoro-2-(((2R,7aS)-2-fluorohexahydro-1H-pyrrolizin-7a-yl)methoxy)pyrido[4,3-d]pyrimidin-4-yl)-1,3,7-triazaspiro[4.5]decane-2,4-dione]
11 | 479 | 33 | 484 | ≤ 2 | 408 | 2530 | ≤ 2 | 3 | O=C1NC(=O)[C@]2(CCCN(c3nc(OC[C@@]45CCCN4C[C@H](F)C5)nc4c(F)c(-c5cc(O)cc6ccc(F)c(Cl)c56)ncc34)C2)N1 [Example 413, (R)-7-(7-(8-chloro-7-fluoro-3-hydroxynaphthalen-1-yl)-8-fluoro-2-(((2R,7aS)-2-fluorohexahydro-1H-pyrrolizin-7a-yl)methoxy)pyrido[4,3-d]pyrimidin-4-yl)-1,3,7-triazaspiro[4.5]decane-2,4-dione]
12 | 695 | 24 | 487 | ≤ 2 | 377 | 2880 | 3 | 4 | CCc1c(F)ccc2cc(O)cc(-c3ncc4c(N5CCCCC6(C5)NC(=O)NC6=O)nc(OC[C@@]56CCCN5C[C@H](F)C6)nc4c3F)c12 (stereo partly drawn) [Example 338, 7-(7-(8-ethyl-7-fluoro-3-hydroxynaphthalen-1-yl)-8-fluoro-2-(((2R,7aS)-2-fluorotetrahydro-1H-pyrrolizin-7a(5H)-yl)methoxy)pyrido[4,3-d]pyrimidin-4-yl)-1,3,7-triazaspiro[4.6]undecane-2,4-dione]
13 | 548 | 46 | 2560 | ≤ 2 | 903 | ≥ 10000 | 40 | 3 | O=C1NC[C@]2(CCCN(c3nc(OC[C@@]45CCCN4C[C@H](F)C5)nc4c(F)c(-c5cc(O)cc6ccc(F)c(Cl)c56)ncc34)C2)N1 [Example 415, (S)-7-(7-(8-chloro-7-fluoro-3-hydroxynaphthalen-1-yl)-8-fluoro-2-(((2R,7aS)-2-fluorohexahydro-1H-pyrrolizin-7a-yl)methoxy)pyrido[4,3-d]pyrimidin-4-yl)-1,3,7-triazaspiro[4.5]decan-2-one]

Source: US12398154B2, “Azaquinazoline pan-KRas inhibitors” (Mirati Therapeutics, Inc., priority 2020, dated 2025)
